Source: ChEMBL document CHEMBL1201862, “PubChem BioAssay data set” (2004)
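The compound was tested at five concentrations on cells cultured in 96-well plates, with a 48-hour exposure period. Here, GI50 denotes the concentration required for 50% inhibition of growth.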 Active and inactive are the calls of the source. Cut-off read from the data, not from the text of the source: active = GI50 up to about 1.1 µM and inactive = higher.

What was measured:
Assay in all cases: NCI anticancer screen, dose series, 48 h
UO-31 = test system: UO-31
HCT-15 = test system: HCT-15
HCT-116 = test system: HCT-116
SF-539 = test system: SF-539
SN12C = test system: SN12C
UACC-257 = test system: UACC-257
IGROV-1 = test system: IGROV-1
ACHN = test system: ACHN
A498 = test system: A498
UACC-62 = test system: UACC-62
SNB-19 = test system: SNB-19
SF-295 = test system: SF-295
Malme-3M = test system: Malme-3M
CCRF-CEM = test system: CCRF-CEM
NCI-H522 = test system: NCI-H522
HOP-92 = test system: HOP-92
K562 = test system: K562

Row | Structure (SMILES) | GI50 (UO-31) | GI50 (HCT-15) [µM] | GI50 (HCT-116) | GI50 (SF-539) | GI50 (SN12C) | GI50 (UACC-257) | GI50 (IGROV-1) | GI50 (ACHN) | GI50 (A498) | GI50 (UACC-62) | GI50 (SNB-19) | GI50 (SF-295) | GI50 (Malme-3M) | GI50 (CCRF-CEM) | GI50 (NCI-H522) | GI50 (HOP-92) | GI50 (K562)
1 | COC(=O)N/N=c1\cc(C(=O)Nc2ccc(C)c(C)c2)oc2cc(O)ccc12 | > 100 µM (inactive) | > 100 | > 100 µM (inactive) | > 100 µM (inactive) | > 100 µM (inactive) | > 100 µM (inactive) | > 100 µM (inactive) | > 100 µM (inactive) | > 100 µM (inactive) | > 100 µM (inactive) | > 100 µM (inactive) | > 100 µM (inactive) | > 100 µM (inactive) | > 100 µM (inactive) | > 100 µM (inactive) | > 100 µM (inactive) | > 100 µM (inactive)
2 | C/C(CC(=O)Nc1cccc(Cl)c1C)=N\N=C(N)N | > 100 µM (inactive) | > 100 | > 100 µM (inactive) | > 100 µM (inactive) | > 100 µM (inactive) | > 100 µM (inactive) | > 100 µM (inactive) | > 100 µM (inactive) | > 100 µM (inactive) | > 100 µM (inactive) | > 100 µM (inactive) | > 100 µM (inactive) | > 100 µM (inactive) | > 100 µM (inactive) | > 100 µM (inactive) | > 100 µM (inactive) | 24.1 µM (inactive)
3 | C[N+](C)(C)CC1CCCC(C[N+](C)(C)C)C1O (configuration not stated) | > 100 µM (inactive) | > 100 | > 100 µM (inactive) | > 100 µM (inactive) | > 100 µM (inactive) | > 100 µM (inactive) | > 100 µM (inactive) | > 100 µM (inactive) | > 100 µM (inactive) | > 100 µM (inactive) | – | > 100 µM (inactive) | > 100 µM (inactive) | > 100 µM (inactive) | > 100 µM (inactive) | > 100 µM (inactive) | > 100 µM (inactive)
4 | COc1cc2c(cc1OC)C1(c3ccc(Cl)cc3)ON=C(c3ccccc3)N1CS2 (configuration not stated) | 27.1 µM (inactive) | > 100 | 6.37 µM (inactive) | > 100 µM (inactive) | 64.7 µM (inactive) | > 100 µM (inactive) | 38.7 µM (inactive) | 91.8 µM (inactive) | 83.2 µM (inactive) | 36 µM (inactive) | > 100 µM (inactive) | 95.3 µM (inactive) | > 100 µM (inactive) | 41 µM (inactive) | 58.9 µM (inactive) | 44.8 µM (inactive) | 75.3 µM (inactive)
5 | O=C(NC1CCCCCC1)C1C(=O)N(C2CCCCCC2)C(=O)/C1=N\O (configuration not stated) | 28.4 µM (inactive) | 34.4 | 17.3 µM (inactive) | 25.2 µM (inactive) | 34.7 µM (inactive) | 38.8 µM (inactive) | 50 µM (inactive) | 35.2 µM (inactive) | 32.9 µM (inactive) | 21 µM (inactive) | 35.2 µM (inactive) | 36.6 µM (inactive) | 24.4 µM (inactive) | 27.2 µM (inactive) | 19.6 µM (inactive) | 20.6 µM (inactive) | 39.1 µM (inactive)
6 | CCn1c2c(c3ccccc31)C(c1ccccc1)CC1C(=O)N(c3ccccc3)C(=O)C21 (configuration not stated) | 36.1 µM (inactive) | > 100 | 55 µM (inactive) | 35.4 µM (inactive) | 67.1 µM (inactive) | > 100 µM (inactive) | 33 µM (inactive) | 57.5 µM (inactive) | 5.78 µM (inactive) | 38.9 µM (inactive) | 50.5 µM (inactive) | > 100 µM (inactive) | 24 µM (inactive) | > 100 µM (inactive) | 72.8 µM (inactive) | 26.2 µM (inactive) | 89.5 µM (inactive)
7 | O=C(N/C(=C\c1c(O)ccc2ccccc12)c1nc2ccccc2[nH]1)c1ccccc1 | 42.6 µM (inactive) | > 100 | > 100 µM (inactive) | 29.1 µM (inactive) | 92.7 µM (inactive) | > 100 µM (inactive) | > 100 µM (inactive) | > 100 µM (inactive) | 38.2 µM (inactive) | > 100 µM (inactive) | 53.8 µM (inactive) | – | > 100 µM (inactive) | > 100 µM (inactive) | > 100 µM (inactive) | > 100 µM (inactive) | > 100 µM (inactive)
